In publication PMC3104491 (mBio, 2011):

Tests used:
[1] = molecular target: T1, CTL843 (SAMHT, SAM/SAH transporter) (Chlamydia trachomatis, UniProt B0B8F4); experiment: inhibition of […]SAM uptake in whole E. coli cells expressing CTL843; format: cell-based
T1 sequence (B0B8F4 1-327): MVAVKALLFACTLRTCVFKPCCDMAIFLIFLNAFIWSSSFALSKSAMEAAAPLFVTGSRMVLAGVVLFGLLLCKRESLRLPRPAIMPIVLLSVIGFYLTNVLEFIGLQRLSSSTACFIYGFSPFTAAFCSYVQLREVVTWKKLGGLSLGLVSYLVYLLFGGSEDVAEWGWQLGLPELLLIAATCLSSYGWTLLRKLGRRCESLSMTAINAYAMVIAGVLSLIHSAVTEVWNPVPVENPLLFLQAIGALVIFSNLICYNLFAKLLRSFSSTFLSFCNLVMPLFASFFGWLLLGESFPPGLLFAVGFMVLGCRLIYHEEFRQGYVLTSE

[2] = substrate: C[S@@+](CC[C@H](N)C(=O)O)C[C@H]1O[C@@H](n2cnc3c(N)ncnc32)[C@H](O)[C@@H]1O; experiment: cells, lysate or membranes

## Nc1ncnc2c1ncn2[C@@H]1O[C@H](CSCC[C@H](N)C(=O)O)[C@@H](O)[C@H]1O [SAH, S-Adenosyl-L-homocysteine]
[1]
  Ki: 4.12 µM

B1: CTL843 (SAMHT, SAM/SAH transporter) (Chlamydia trachomatis L2/434/Bu) (protein)
chain: T1 sequence (B0B8F4 1-327)
[2]
  Km: 5.88 ± 0.11 µM
